The cell lines below were run with CC(C)C[C@H](NC(=O)[C@H](CCc1ccccc1)NC(=O)CN1CCOCC1)C(=O)N[C@@H](Cc1ccccc1)C(=O)N[C@@H](CC(C)C)C(=O)[C@@]1(C)CO1 [Carfilzomib] + O=C(c1cc(Cc2n[nH]c(=O)c3ccccc23)ccc1F)N1CCN(C(=O)C2CC2)CC1 [Olaparib] (partner 8 µM) (assay: relative viability (nuclei count vs DMSO), 5 days (fraction); higher = more cells survive). Settings: first compound 0.1 µM.
Method in brief: (§1)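 Lung cancer cell lines in 1536-well plates got either a single drug or a fixed anchor-drug dose together with five library-drug doses (not always all listed) in √10 steps, by pin tool, on the day after seeding. Nuclei were counted after 5 days, and relative viability is the treated-to-vehicle ratio of nuclei counts. Values are medians of duplicate plates.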

| Cell Line | relative viability |
| --- | --- |
| NCI-H2126 | 0.464 |
| NCI-H2228 | 0.124 |
| NCI-H2347 | 0.363 |
| NCI-H2405 | 0.211 |
| NCI-H3122 | 0.269 |
| PC-3 [JPC-3] | 0.301 |
| PC-14 | 0.0576 |
| RERF-LC-KJ | 0.22 |
| SK-LU-1 | 0.147 |
| SW 1573 | 0.0533 |
| UMC-11 | 0.205 |

The cell lines below were run with CC(C)C[C@H](NC(=O)[C@H](CCc1ccccc1)NC(=O)CN1CCOCC1)C(=O)N[C@@H](Cc1ccccc1)C(=O)N[C@@H](CC(C)C)C(=O)[C@@]1(C)CO1 [Carfilzomib] + Cc1nc(NC(=O)N2CCC[C@H]2C(N)=O)sc1-c1ccnc(C(C)(C)C(F)(F)F)c1 [Alpelisib] (partner 2 µM) in the same assay as above. Settings: first compound 0.001 µM.
Method in brief: as §1

| Cell Line | relative viability |
| --- | --- |
| NCI-H727 | 0.683 |
| NCI-H838 | 0.979 |
| NCI-H1299 | 1.1 |
| NCI-H1355 | 0.753 |
| NCI-H1437 | 0.982 |
| NCI-H1651 | 0.927 |
| NCI-H1666 | 1.06 |
| NCI-H1703 | 0.246 |
| NCI-H1734 | 0.695 |
| NCI-H1755 | 0.917 |
| NCI-H1792 | 0.648 |
| NCI-H1915 | 1.05 |
| NCI-H1975 | 0.584 |
| NCI-H1993 | 0.717 |
| NCI-H2009 | 1.24 |
| NCI-H2023 | 0.605 |
| NCI-H2085 | 0.978 |
| NCI-H2087 | 1.13 |
| NCI-H2126 | 0.683 |
| NCI-H2228 | 0.662 |
| NCI-H2347 | 0.96 |
| NCI-H3122 | 0.748 |
| PC-3 [JPC-3] | 1.07 |
| PC-14 | 0.958 |
| RERF-LC-KJ | 0.847 |
| SK-LU-1 | 1.05 |
| SW 1573 | 0.731 |
| UMC-11 | 1.01 |

Same assay, conditions: first compound 0.003162 µM

| Cell Line | relative viability |
| --- | --- |
| NCI-H727 | 0.542 |
| NCI-H838 | 1.09 |
| NCI-H1299 | 1.01 |
| NCI-H1355 | 0.767 |
| NCI-H1437 | 1.01 |
| NCI-H1651 | 0.881 |
| NCI-H1666 | 1.05 |
| NCI-H1703 | 0.334 |
| NCI-H1734 | 0.832 |
| NCI-H1755 | 0.948 |
| NCI-H1792 | 0.742 |
| NCI-H1915 | 1.1 |
| NCI-H1975 | 0.646 |
| NCI-H1993 | 0.654 |
| NCI-H2009 | 1.21 |
| NCI-H2023 | 0.539 |
| NCI-H2085 | 1.1 |
| NCI-H2087 | 1.25 |
| NCI-H2126 | 0.787 |
| NCI-H2228 | 0.73 |
| NCI-H2347 | 1.18 |
| NCI-H2405 | 1.13 |
| NCI-H3122 | 0.847 |
| PC-3 [JPC-3] | 1.08 |
| PC-14 | 0.981 |
| RERF-LC-KJ | 0.873 |
| SK-LU-1 | 1 |
| SW 1573 | 0.835 |
| UMC-11 | 0.976 |

Same assay, conditions: first compound 0.01 µM

| Cell Line | relative viability |
| --- | --- |
| NCI-H727 | 0.655 |
| NCI-H838 | 1.06 |
| NCI-H1299 | 1.06 |
| NCI-H1355 | 0.737 |
| NCI-H1437 | 0.943 |
| NCI-H1651 | 0.725 |
| NCI-H1666 | 1.03 |
| NCI-H1703 | 0.126 |
| NCI-H1734 | 0.69 |
| NCI-H1755 | 0.925 |
| NCI-H1792 | 0.674 |
| NCI-H1915 | 1.04 |
| NCI-H1975 | 0.281 |
| NCI-H1993 | 0.765 |
| NCI-H2009 | 1.21 |
| NCI-H2023 | 0.732 |
| NCI-H2085 | 0.908 |
| NCI-H2087 | 0.83 |
| NCI-H2126 | 0.792 |
| NCI-H2228 | 0.49 |
| NCI-H2347 | 1.05 |
| NCI-H2405 | 0.777 |
| NCI-H3122 | 0.748 |
| PC-3 [JPC-3] | 1.02 |
| PC-14 | 0.976 |
| RERF-LC-KJ | 0.842 |
| SK-LU-1 | 0.712 |
| SW 1573 | 0.642 |
| UMC-11 | 0.947 |

Same assay, conditions: first compound 0.03162 µM

| Cell Line | relative viability |
| --- | --- |
| NCI-H727 | 0.421 |
| NCI-H838 | 0.992 |
| NCI-H1299 | 1.02 |
| NCI-H1355 | 0.584 |
| NCI-H1437 | 0.54 |
| NCI-H1651 | 0.0951 |
| NCI-H1666 | 0.3 |
| NCI-H1703 | 0.112 |
| NCI-H1734 | 0.367 |
| NCI-H1755 | 0.601 |
| NCI-H1792 | 0.756 |
| NCI-H1915 | 0.689 |
| NCI-H1975 | 0.117 |
| NCI-H1993 | 0.521 |
| NCI-H2009 | 0.959 |
| NCI-H2023 | 0.488 |
| NCI-H2085 | 0.43 |
| NCI-H2087 | 0.0689 |
| NCI-H2126 | 0.774 |
| NCI-H2228 | 0.108 |
| NCI-H2347 | 0.875 |
| NCI-H2405 | 0.312 |
| NCI-H3122 | 0.959 |
| PC-3 [JPC-3] | 0.824 |
| PC-14 | 0.0805 |
| RERF-LC-KJ | 0.645 |
| SK-LU-1 | 0.182 |
| SW 1573 | 0.19 |
| UMC-11 | 1.03 |

Same assay, conditions: first compound 0.1 µM

| Cell Line | relative viability |
| --- | --- |
| NCI-H727 | 0.0733 |
| NCI-H838 | 0.122 |
| NCI-H1299 | 0.257 |
| NCI-H1355 | 0.139 |
| NCI-H1437 | 0.101 |
| NCI-H1651 | 0.0668 |
| NCI-H1666 | 0.231 |
| NCI-H1703 | 0.122 |
| NCI-H1734 | 0.165 |
| NCI-H1755 | 0.202 |
| NCI-H1792 | 0.386 |
| NCI-H1915 | 0.0648 |
| NCI-H1975 | 0.126 |
| NCI-H1993 | 0.483 |
| NCI-H2009 | 0.0547 |
| NCI-H2023 | 0.0793 |
| NCI-H2085 | 0.282 |
| NCI-H2087 | 0.0648 |
| NCI-H2126 | 0.563 |
| NCI-H2228 | 0.156 |
| NCI-H2347 | 0.345 |
| NCI-H2405 | 0.168 |
| NCI-H3122 | 0.69 |
| PC-3 [JPC-3] | 0.257 |
| PC-14 | 0.0691 |
| RERF-LC-KJ | 0.227 |
| SK-LU-1 | 0.143 |
| SW 1573 | 0.096 |
| UMC-11 | 0.152 |

The cell lines below were run with O=C(c1cc(Cc2n[nH]c(=O)c3ccccc23)ccc1F)N1CCN(C(=O)C2CC2)CC1 [Olaparib] + C[C@]1(O)C[C@@H](c2nc(-c3ccc4ccc(-c5ccccc5)nc4c3)c3c(N)nccn32)C1 [Linsitinib] (partner 1 µM) in the same assay as above. Settings: first compound 0.08 µM.
Method in brief: as §1

| Cell Line | relative viability |
| --- | --- |
| NCI-H727 | 0.283 |
| NCI-H838 | 1.05 |
| NCI-H1299 | 1 |
| NCI-H1355 | 0.882 |
| NCI-H1437 | 1.18 |
| NCI-H1651 | 1.01 |
| NCI-H1666 | 0.901 |
| NCI-H1703 | 0.9 |
| NCI-H1734 | 0.998 |
| NCI-H1755 | 1.03 |
| NCI-H1792 | 0.7 |
| NCI-H1915 | 1.14 |
| NCI-H1975 | 1.02 |
| NCI-H1993 | 0.745 |
| NCI-H2009 | 1.28 |
| NCI-H2023 | 0.754 |
| NCI-H2085 | 0.982 |
| NCI-H2087 | 0.984 |
| NCI-H2126 | 0.808 |
| NCI-H2228 | 0.686 |
| NCI-H2347 | 1.03 |
| NCI-H2405 | 1.15 |
| NCI-H3122 | 0.95 |
| PC-3 [JPC-3] | 0.93 |
| PC-14 | 1.02 |
| RERF-LC-KJ | 0.939 |
| SK-LU-1 | 1.34 |
| SW 1573 | 0.893 |
| UMC-11 | 1.03 |

Same assay, conditions: first compound 0.253 µM

| Cell Line | relative viability |
| --- | --- |
| NCI-H727 | 0.241 |
| NCI-H838 | 0.928 |
| NCI-H1299 | 0.945 |
| NCI-H1355 | 0.811 |
| NCI-H1437 | 0.927 |
| NCI-H1651 | 0.821 |
| NCI-H1666 | 0.841 |
| NCI-H1703 | 0.697 |
| NCI-H1734 | 0.809 |
| NCI-H1755 | 0.917 |
| NCI-H1792 | 0.46 |
| NCI-H1915 | 1.02 |
| NCI-H1975 | 0.95 |
| NCI-H1993 | 0.749 |
| NCI-H2009 | 1.17 |
| NCI-H2023 | 0.608 |
| NCI-H2085 | 0.868 |
| NCI-H2087 | 0.912 |
| NCI-H2126 | 0.641 |
| NCI-H2228 | 0.629 |
| NCI-H2347 | 0.879 |
| NCI-H2405 | 0.93 |
| NCI-H3122 | 1.04 |
| PC-3 [JPC-3] | 0.914 |
| PC-14 | 0.856 |
| RERF-LC-KJ | 0.903 |
| SK-LU-1 | 0.998 |
| SW 1573 | 0.889 |
| UMC-11 | 0.974 |

Same assay, conditions: first compound 2.53 µM

| Cell Line | relative viability |
| --- | --- |
| NCI-H727 | 0.247 |
| NCI-H838 | 0.971 |
| NCI-H1299 | 0.966 |
| NCI-H1355 | 0.775 |
| NCI-H1437 | 1.02 |
| NCI-H1651 | 0.679 |
| NCI-H1666 | 0.75 |
| NCI-H1703 | 0.881 |
| NCI-H1734 | 0.799 |
| NCI-H1755 | 0.92 |
| NCI-H1792 | 0.421 |
| NCI-H1915 | 0.734 |
| NCI-H1975 | 0.9 |
| NCI-H1993 | 0.831 |
| NCI-H2009 | 1.09 |
| NCI-H2023 | 0.535 |
| NCI-H2085 | 0.819 |
| NCI-H2087 | 0.83 |
| NCI-H2126 | 0.698 |
| NCI-H2228 | 0.698 |
| NCI-H2347 | 0.823 |
| NCI-H2405 | 0.915 |
| NCI-H3122 | 0.954 |
| PC-3 [JPC-3] | 0.962 |
| PC-14 | 0.859 |
| RERF-LC-KJ | 0.948 |
| SK-LU-1 | 1.02 |
| SW 1573 | 0.661 |
| UMC-11 | 0.798 |

Same assay, conditions: first compound 8 µM

| Cell Line | relative viability |
| --- | --- |
| NCI-H727 | 0.282 |
| NCI-H838 | 0.933 |
| NCI-H1299 | 0.943 |
| NCI-H1355 | 0.637 |
| NCI-H1437 | 0.788 |
| NCI-H1651 | 0.297 |
| NCI-H1666 | 0.655 |
| NCI-H1703 | 0.408 |
| NCI-H1734 | 0.579 |
| NCI-H1755 | 0.918 |
| NCI-H1792 | 0.324 |
| NCI-H1915 | 0.651 |
| NCI-H1975 | 0.895 |
| NCI-H1993 | 0.78 |
| NCI-H2009 | 0.928 |
| NCI-H2023 | 0.469 |
| NCI-H2085 | 0.677 |
| NCI-H2087 | 0.685 |
| NCI-H2126 | 0.7 |
| NCI-H2228 | 0.434 |
| NCI-H2347 | 0.816 |
| NCI-H2405 | 0.851 |
| NCI-H3122 | 0.899 |
| PC-3 [JPC-3] | 0.908 |
| PC-14 | 0.815 |
| RERF-LC-KJ | 0.902 |
| SK-LU-1 | 0.622 |
| SW 1573 | 0.73 |
| UMC-11 | 0.504 |
